Earlier results in patent US11963942B2, “Oral taxane compositions and methods” (Athenex HK Innovative Limited, priority 2015, dated 2024).

Biological target: MDR1 (ABCB1) (Homo sapiens, UniProt P08183)
Details: Kwak et al., Eur. J. Pharm. 627, 92-98 (2010)

Sequence of MDR1 (ABCB1) (P08183 whole entry, species assumed): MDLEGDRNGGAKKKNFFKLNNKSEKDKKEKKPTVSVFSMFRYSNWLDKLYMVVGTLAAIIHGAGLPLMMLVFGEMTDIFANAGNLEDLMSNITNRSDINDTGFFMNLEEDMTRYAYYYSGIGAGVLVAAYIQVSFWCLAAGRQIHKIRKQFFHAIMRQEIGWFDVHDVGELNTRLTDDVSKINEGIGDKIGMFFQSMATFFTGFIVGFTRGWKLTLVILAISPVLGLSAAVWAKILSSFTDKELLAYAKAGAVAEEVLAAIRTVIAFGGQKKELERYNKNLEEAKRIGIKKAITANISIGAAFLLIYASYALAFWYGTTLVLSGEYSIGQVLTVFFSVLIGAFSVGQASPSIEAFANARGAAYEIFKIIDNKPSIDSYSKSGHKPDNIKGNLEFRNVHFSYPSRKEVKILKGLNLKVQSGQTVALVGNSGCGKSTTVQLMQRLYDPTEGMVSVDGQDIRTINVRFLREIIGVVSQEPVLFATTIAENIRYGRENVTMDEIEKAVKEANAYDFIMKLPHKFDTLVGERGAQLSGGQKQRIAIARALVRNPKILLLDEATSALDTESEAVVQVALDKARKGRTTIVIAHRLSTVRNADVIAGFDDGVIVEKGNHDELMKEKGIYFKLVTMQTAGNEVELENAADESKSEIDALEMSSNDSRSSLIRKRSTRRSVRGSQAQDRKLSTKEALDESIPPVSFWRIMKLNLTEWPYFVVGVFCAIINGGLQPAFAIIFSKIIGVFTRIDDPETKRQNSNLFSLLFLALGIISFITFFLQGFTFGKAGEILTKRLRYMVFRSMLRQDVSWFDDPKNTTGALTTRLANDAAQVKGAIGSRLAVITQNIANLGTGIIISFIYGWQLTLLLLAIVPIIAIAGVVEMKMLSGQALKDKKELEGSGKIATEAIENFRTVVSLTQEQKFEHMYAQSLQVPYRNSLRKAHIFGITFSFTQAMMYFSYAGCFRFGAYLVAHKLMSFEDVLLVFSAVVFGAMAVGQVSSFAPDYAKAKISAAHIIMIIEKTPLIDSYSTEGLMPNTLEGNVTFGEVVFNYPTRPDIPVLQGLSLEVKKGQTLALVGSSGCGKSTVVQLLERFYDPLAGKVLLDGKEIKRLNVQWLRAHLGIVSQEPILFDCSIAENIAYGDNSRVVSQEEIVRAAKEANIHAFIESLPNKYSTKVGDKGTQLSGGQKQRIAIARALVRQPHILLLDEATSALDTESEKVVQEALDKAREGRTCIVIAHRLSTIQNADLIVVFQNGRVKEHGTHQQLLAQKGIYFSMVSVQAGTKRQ

potency compared with cyclosporine A: more potent than cyclosporine A
SMILES: COc1cc2c(cc1OC)CN(CCc1ccc(-n3nnc(-c4cc(OC)c(OC)cc4NC(=O)c4cc(=O)c5ccccc5o4)n3)cc1)CC2 [HM30181, 4-oxo-4H-chromene-2-carboxylic acid [2-(2-(4-[2-(6,7-dimethoxy-3,4-dihydro-1H-isoquinolin-2-yl)-ethyl]-phenyl)-2H-tetrazol-5-yl)-4,5-dimethoxy-phenyl]-amide]
